Literature values as cited in US20250312272A1, “PHARMACEUTICAL FORMULATIONS FOR ORAL ADMINISTRATION AND METHODS OF MAKING AND USING THE SAME” (Aaryen Pharma LLC, priority 2024, published 2025).
Counter-ions that a name gives are not always drawn.

SMILES	solubility (descriptive term of Table 1) (in water)	solubility in water
COc1ccccc1OCC(O)CO (centres unmarked) [guaifenesin]	sparingly soluble	–
COc1ccc2c(c1)[C@]13CCCC[C@@H]1[C@H](C2)N(C)CC3 [dextromethorphan hydrobromide]	–	water soluble
